# Results published in patent US20240180793A1, “CORE STICK-TYPE OIL DISPERSION SOLID COSMETIC COMPOSITION HAVING IMPROVED SPREADABILITY” (COSMAX, INC., priority 2021, published 2024).
# Target: mushroom tyrosinase
# Assay: Mushroom tyrosinase inhibition assay (whitening effect)
# Format: biochemical
# Settings: mushroom tyrosinase 1000 units/mL, L-tyrosine, pH 6.5, 25° C. for 30 minutes, absorbance at 490 nm
# Method: Then, the absorbance was recorded at 490 nm by a microplate reader to determine the amount of dopachrome generated. […] The expression of the percentage of tyrosinase activity inhibition is as follows.
# Tyrosinase activity inhibitory effect (%)=(1−(A−B)/C)×100 [Equation] • A: Absorbance of sample • B: Absorbance of color control • C: Absorbance of control
smiles,measurement,value
OC[C@H]1O[C@@H](Oc2ccc(O)cc2)[C@H](O)[C@@H](O)[C@@H]1O [Arbutin],IC50 (tyrosinase activity inhibition),630.1 µg/mL
